Results from article PMC9065877, “Safety, tolerability and pharmacokinetics of the oligomer modulator anle138b with exposure levels sufficient for therapeutic efficacy in a murine Parkinson model: A randomised, double-blind, placebo-controlled phase 1a trial” (EBioMedicine, 2022).
Where two headings read alike, the source gives them in different places.

Key:
[1] = 28-day toxicity study in rats; details: rat, in vivo; for Cmax: at 50 mg, read-out: Cmax at NOAEL
Text: This trial followed the recommendations of the EMA (European Medicines Agency) (EMEA/CHMP/SWP/28367/07 Rev. 1; 20 July 2017) and the FDA (Food and Drug Administration) (Guidance for Industry: Estimating the Maximum Safe Starting Dose in Initial Clinical Trials for Therapeutics in Adult Healthy Volunteers. U.S. Department of Health and Human Services Food and Drug Administration Center for Drug Evaluation and Research (CDER) July 2005) for dose finding in a first-in-human study. The safe starting dose was set based on toxicity studies in animals. In a 28-day toxicity study in rats, the no-observed-adverse-effect-level (NOAEL) was determined to be 50 mg/kg/day (human equivalent dose of 8·1 mg/kg using the FDA factor of 6·2 according to the FDA Guidance for Industry “Estimating the Maximum Safe Starting Dose in Initial Clinical Trials for Therapeutics in Adult Healthy Volunteers”). Cmaxǀexposure at 50 mg in males were 2460ǀ25600 and in females 2680ǀ21700 ng/mL ǀ ng*h/mL. In a 28-day cynomolgus monkey toxicity study, the NOAEL was 125 mg/kg/day (human equivalent dose of 40·3 mg/kg). Cmaxǀexposure at 125 mg/kg/day were 3170ǀ15700 (males) and 2720ǀ9720 (females) ng/mL ǀ ng*h/mL. Based upon these NOAELs a safe starting dose derived from the more sensitive species (rat) was calculated using a safety factor of 10 (i.e., 0·8 mg/kg), which corresponds to a dose of approximately 50 mg assuming a body weight of 60 kg. […] Escalation between doses was planned to be flexible depending on emerging results but not to exceed an increment of 2-fold.

[2] = Oral pharmacokinetics, overall statements across SAD, MAD and FES parts; type: in vivo, human
Description: As a safety precaution, sentinel dosing was performed for all SAD and MAD cohorts. In SAD, subjects received a single dose of anle138b or placebo after fasting from all food and drink (except water) for a minimum of 8 h prior to dosing. The dosing in the four SAD-cohorts were 50 mg, 100 mg, 200 mg and 300 mg of free anle138b equivalent, respectively. In the MAD part, participants received anle138b or placebo once daily (QD) for 7 days after fasting from all food and drink (except water) for a minimum of 8 h prior to dosing. The dosing in the three MAD-cohorts was 100 mg, 200 mg and 300 mg of free anle138b equivalent, respectively. Post dosing mouth and hand checks were conducted to ensure the capsules were swallowed. In-study decisions regarding continuation and dose escalation were made by the safety advisory committee (SAC) comprising the principal investigator, the sponsor's medical monitor and a PK expert. For dose escalation to proceed, data needed to be available from a minimum of 6 subjects per cohort with completed per protocol safety and PK assessments up to 48 h after dosing to ensure at least 4 subjects had received active IMP. The decision to proceed to the next higher dose level was based on safety, tolerability and available PK data to 48 h post-dose. The following data were required: Adverse events, vital signs, safety laboratory, ECG, physical examinations, plasma concentrations of anle138b with interim PK parameter estimations (Tmax, Cmax, AUC(0-24), AUC(0-tau), AUC(0-last) and T½, where applicable). Data were provided to the SAC in accordance with Quotient Sciences’ standard operating procedure (SOP) on interim dose decision-making and dose escalation. […]
Secondary outcome measures were the oral PK of single (SAD) and multiple (MAD) ascending doses of anle138b in the fasted state as well as the effect of co-administration with food on the PK of anle138b. […] Time point of last quantifiable data was seen to increase with an increase in dose as follows: SAD: from the 50mg dose (subjects ranged between 8-24h) to the 300mg dose (subjects ranged between 36-48h). […]

[3] = Multiple ascending dose (MAD, QD 7 days) oral pharmacokinetics of anle138b in healthy subjects, plasma; type: in vivo, human
Description: This was a single-centre, double-blind, randomised, placebo-controlled single ascending dose (SAD) and multiple ascending dose (MAD) study of anle138b in doses of up to 300 mg per day in healthy subjects. In addition, the effect of food (FES) on the PK of anle138b in healthy subjects was examined using single doses of 150 mg. Participants were recruited from Quotient Sciences (Nottingham, UK) volunteer database.
As a safety precaution, sentinel dosing was performed for all SAD and MAD cohorts. In SAD, subjects received a single dose of anle138b or placebo after fasting from all food and drink (except water) for a minimum of 8 h prior to dosing. The dosing in the four SAD-cohorts were 50 mg, 100 mg, 200 mg and 300 mg of free anle138b equivalent, respectively. In the MAD part, participants received anle138b or placebo once daily (QD) for 7 days after fasting from all food and drink (except water) for a minimum of 8 h prior to dosing. The dosing in the three MAD-cohorts was 100 mg, 200 mg and 300 mg of free anle138b equivalent, respectively. Post dosing mouth and hand checks were conducted to ensure the capsules were swallowed. In-study decisions regarding continuation and dose escalation were made by the safety advisory committee (SAC) comprising the principal investigator, the sponsor's medical monitor and a PK expert. For dose escalation to proceed, data needed to be available from a minimum of 6 subjects per cohort with completed per protocol safety and PK assessments up to 48 h after dosing to ensure at least 4 subjects had received active IMP. The decision to proceed to the next higher dose level was based on safety, tolerability and available PK data to 48 h post-dose. The following data were required: Adverse events, vital signs, safety laboratory, ECG, physical examinations, plasma concentrations of anle138b with interim PK parameter estimations (Tmax, Cmax, AUC(0-24), AUC(0-tau), AUC(0-last) and T½, where applicable). Data were provided to the SAC in accordance with Quotient Sciences’ standard operating procedure (SOP) on interim dose decision-making and dose escalation.
Secondary outcome measures were the oral PK of single (SAD) and multiple (MAD) ascending doses of anle138b in the fasted state as well as the effect of co-administration with food on the PK of anle138b. To this end PK blood samples were taken at day 1 (and for MAD day 7) pre-dose and at 0·5, 1, 1·5, 2, 3, 4, 6, 8, 10, 12, 16 and 20 h post-dose, at days 2 to 6 pre-dose only (MAD) and 24, 30, 36 and 48 h post final dose. Analysis of anle138b in plasma was done at Aptuit, an Evotec company, in Verona, Italy. Time point of last quantifiable data was seen to increase with an increase in dose as follows: SAD: from the 50mg dose (subjects ranged between 8-24h) to the 300mg dose (subjects ranged between 36-48h). MAD: from the 100mg dose (subjects ranged between 8-36h) to the 300mg dose (subjects ranged between 20-48h). In FES, subjects ranged between 24-48h.
The study was exploratory and no formal sample size calculation was made. Based on experience from previous studies of similar design, eight subjects per cohort were enrolled for parts 1 (SAD) and 2 (MAD) and a total of twelve subjects for part 3 (FES). Populations and analysis sets were determined for safety and PK data after database lock using the criteria defined in the reporting and analysis plan. The safety population and safety analysis set for SAD and MAD were defined after database lock but prior to study unblinding. Statistical analysis and production of summary tables, figures and listings for all safety data (AEs, vital signs, ECGs and safety laboratory assessments) including changes from baseline as required in this study were performed using the statistical package SAS (v9·4). Additional statistics was provided for PK-related data including coefficient of variation (CV%), geometric mean, geometric CV%, and the number n of subjects that were included in the natural logarithmic transformation). […]

With `Brc1cccc(-c2cc(-c3ccc4c(c3)OCO4)n[nH]2)c1` [anle138b, 3-(1,3-benzodioxol-5-yl)-5-(3-bromophenyl)-1H-pyrazole] the Cmax ([1]; female, females) was 2680 ng/mL, the Cmax ([1]; male, males) was 2460 ng/mL and the NOAEL at 28 days ([1]; 28-day toxicity study, read-out: no-observed-adverse-effect-level (NOAEL)) was 50 mg/kg/day. The half-life ([2]; human, plasma, oral, authors' conclusion from SAD data, read-out: true T½ of anle138b in human plasma) was ≥ 10 h, the practical elimination half-time ([2]; overall PK data) was ~12 h and the “Bioavailability (in words)” value ([2]; overall PK data, fasted and fed conditions) was “good bioavailability”. For the same compound, the “Time point of last quantifiable data (range of subjects)” value ([3]; MAD 100mg dose) was 8 to 36 h, the “Time point of last quantifiable data (range of subjects)” value ([3]; MAD 300mg dose) was 20 to 48 h and the “Effect of multiple dosing on Tmax” value ([3]; MAD day 7 vs day 1) was “unaffected by multiple dosing”. The “Exposure relative to the level required for full efficacy in PD mouse model (≥300 ng*h/ml)” value ([3]; highest dose tested (300 mg), multiple dosing) was “more than twice this exposure”, the Cmax ([3]; human, plasma, oral, 100 mg, MAD Cohort A 100 mg QD, dosing day 1, fasted, geometric mean (CV%)) was 135 ng/mL and the AUC(0-t) ([3]; human, plasma, oral, 100 mg, MAD Cohort A 100 mg QD, dosing day 1, fasted, geometric mean (CV%), read-out: AUC(0-24)) was 261 ng·h/mL. It also gave an AUC(0-t) ([3]; human, plasma, oral, 100 mg, MAD Cohort A 100 mg QD, dosing day 7, fasted, geometric mean (CV%), read-out: AUC(0-24)) of 141 ng·h/mL, a Cmax ([3]; human, plasma, oral, 200 mg, MAD Cohort B 200 mg QD, dosing day 1, fasted, geometric mean (CV%)) of 447 ng/mL and an AUC(0-t) ([3]; human, plasma, oral, 200 mg, MAD Cohort B 200 mg QD, dosing day 1, fasted, geometric mean (CV%), read-out: AUC(0-24)) of 905 ng·h/mL. The Cmax ([3]; human, plasma, oral, 200 mg, MAD Cohort B 200 mg QD, dosing day 7, fasted, geometric mean (CV%)) was 128 ng/mL, the AUC(0-t) ([3]; human, plasma, oral, 200 mg, MAD Cohort B 200 mg QD, dosing day 7, fasted, geometric mean (CV%), read-out: AUC(0-24)) was 308 ng·h/mL and the AUC(0-t) ([3]; human, plasma, oral, 200 mg, multiple dosing at a daily dose of 200 mg, read-out: Exposure level (AUC0-24)) was ≥ 300 ng·h/mL. For the same compound, the Cmax ([3]; human, plasma, oral, 300 mg, MAD Cohort C 300 mg QD, dosing day 1, fasted, geometric mean (CV%)) was 910 ng/mL, the AUC(0-t) ([3]; human, plasma, oral, 300 mg, MAD Cohort C 300 mg QD, dosing day 1, fasted, geometric mean (CV%), read-out: AUC(0-24)) was 2210 ng·h/mL and the Cmax ([3]; human, plasma, oral, 300 mg, MAD Cohort C 300 mg QD, dosing day 7, fasted, geometric mean (CV%)) was 307 ng/mL. For the same compound, the AUC(0-t) ([3]; human, plasma, oral, 300 mg, MAD Cohort C 300 mg QD, dosing day 7, fasted, geometric mean (CV%), read-out: AUC(0-24)) was 633 ng·h/mL, the half-life ([3]; human, plasma, oral, MAD Cohort B 200 mg QD, dosing day 7, fasted, geometric mean (CV%), N=5) was ~10 h and the “Day by which steady state exposure appeared to be reached” value ([3]; trough (pre-dose) levels, repeated daily dosing) was ≤ 5 days.
